According to the NIST ThermoML archive (doi:10.1016/j.jct.2014.07.019):

Test: xn = mol fraction of the nth substance listed
Details: 100 kPa, Liquid; for mass density: Vibrating tube method; for speed of sound: Frequency=3 MHz, Sing-around technique in a fixed-path interferometer

CCCCOCC(C)O (stereo not given) [1-butoxy-2-propanol] + CCCO
Details | mass density, 303.15 K [kg/m3] | mass density, 308.15 K [kg/m3] | mass density, 313.15 K [kg/m3] | speed of sound, 308.15 K [m/s] | speed of sound, 313.15 K [m/s]
x1 = 0.0573 | 804.905 | 800.798 | 796.651 | 1180.4 | 1164.1
x1 = 0.1001 | 810.658 | 806.519 | 802.334 | 1185.4 | 1169
x1 = 0.1558 | 817.667 | 813.493 | 809.279 | 1191.3 | 1174.7
x1 = 0.2031 | 822.949 | 818.753 | 814.513 | 1195.7 | 1179.1
x1 = 0.2532 | 828.091 | 823.867 | 819.599 | 1199.8 | 1183.1
x1 = 0.3033 | 832.749 | 828.501 | 824.211 | 1203.5 | 1186.7
x1 = 0.4046 | 841.013 | 836.72 | 832.382 | 1209.6 | 1192.7
x1 = 0.5048 | 847.934 | 843.623 | 839.27 | 1214.4 | 1197.2
x1 = 0.6055 | 853.82 | 849.452 | 845.054 | 1218.2 | 1201
x1 = 0.7052 | 858.839 | 854.443 | 850.006 | 1221.1 | 1203.8
x1 = 0.807 | 863.298 | 858.874 | 854.415 | 1223.4 | 1206.2
x1 = 0.8546 | 865.165 | 860.735 | 856.272 | 1224.2 | 1206.6
x1 = 0.9041 | 867.019 | 862.582 | 858.113 | 1225 | 1207.4
x1 = 0.9537 | 868.704 | 864.265 | 859.772 | 1225.6 | 1208.1
x1 = 1 | 870.204 | 865.737 | 861.241 | 1224.9 | 1207
